Reference: patent US20240279236A1, “COMPOUNDS AND METHODS OF TREATING TUBERCULOSIS” (Fimbrion Therapeutics, Inc., priority 2021, published 2024)

tested on: WT Mtb Erdman strain; assay: Microplate Alamar Blue Assay (MABA), Mtb growth inhibition; assay type: cell-based, Mycobacterium tuberculosis; settings: Mycobacterium tuberculosis, ERDMAN, 168 h, Middlebrook 7H9 media, 7 days at 37° C. in 5% CO2

Structure (SMILES) | IC50 [nM]
Cc1cc2c(NCCCN(C)c3ccccc3)nc(C(F)(F)F)nc2s1 [Example 172, N1-methyl-N3-(6-methyl-2-(trifluoromethyl)thieno[2,3-d]pyrimidin-4-yl)-N1-phenylpropane-1,3-diamine] | 4200
Cc1cc2c(NCCCNc3ccccc3)nc(C(F)(F)F)nc2s1 [Example 173, N1-(6-methyl-2-(trifluoromethyl)thieno[2,3-d]pyrimidin-4-yl)-N3-phenylpropane-1,3-diamine] | 3300
Cc1cc2c(NCCCn3ccc4ccccc43)nc(C(F)(F)F)nc2s1 [Example 177, N-(3-(1H-indol-1-yl)propyl)-6-methyl-2-(trifluoromethyl) thieno[2,3-d] pyrimidin-4-amine] | 4700
Cc1cc2c(NCCCc3ccc(N(C)C)cc3)nc(C(F)(F)F)nc2s1 [Example 178, N-(3-(4-(dimethylamino)phenyl)propyl)-6-methyl-2-(trifluoromethyl) thieno[2,3-d] pyrimidin-4-amine] | 1300
Cc1cc2c(NCCCc3cccc(C(F)(F)F)c3)nc(C(F)(F)F)nc2s1 [Example 179, 6-methyl-2-(trifluoromethyl)-N-(3-(3-(trifluoromethyl)phenyl)propyl) thieno[2,3-d] pyrimidin-4-amine] | 1700
Cc1cc2c(NCCc3ccc4ccccc4n3)nc(C(F)(F)F)nc2s1 [Example 180, 6-methyl-N-(2-(quinolin-2-yl)ethyl)-2-(trifluoromethyl) thieno[2,3-d] pyrimidin-4-amine] | > 10000
Cc1cc2c(N[C@@H]3C[C@H]3c3ccc(F)cc3)nc(C(F)(F)F)nc2s1 [Example 181, N-((1R,2S)-2-(4-fluorophenyl)cyclopropyl)-6-methyl-2-(trifluoromethyl) thieno[2,3-d] pyrimidin-4-amine] | 1300
Cc1cc2c(NCCC(=O)Nc3ccccc3)nc(C(F)(F)F)nc2s1 [Example 182, 3-((6-methyl-2-(trifluoromethyl)thieno[2,3-d]pyrimidin-4-yl)amino)-N-phenylpropanamide] | > 10000
Cc1cc2c(NCCn3cccc3)nc(C(F)(F)F)nc2s1 [Example 183, N-(2-(1H-pyrrol-1-yl)ethyl)-6-methyl-2-(trifluoromethyl) thieno[2,3-d]pyrimidin-4-amine] | > 10000
Cc1cc2c(NCCCc3ccc(O)cc3)nc(C(F)(F)F)nc2s1 [Example 184, 4-(3-((6-methyl-2-(trifluoromethyl)thieno[2,3-d]pyrimidin-4-yl)amino)propyl) phenol] | > 10000
Cc1cc2c(NCCCc3ccc(F)cc3)nc(C(F)(F)F)nc2s1 [Example 185, N-(3-(4-fluorophenyl)propyl)-6-methyl-2-(trifluoromethyl) thieno[2,3-d] pyrimidin-4-amine] | 2300
Cc1cc2c(NCC(C)(C)Cc3ccccc3)nc(C(F)(F)F)nc2s1 [Example 186, N-(2,2-dimethyl-3-phenylpropyl)-6-methyl-2-(trifluoromethyl) thieno[2,3-d] pyrimidin-4-amine] | > 10000
Cc1cc2c(NCCC(C)c3ccccc3)nc(C(F)(F)F)nc2s1 (stereo not shown) [Example 187, 6-methyl-N-(3-phenylbutyl)-2-(trifluoromethyl) thieno[2,3-d] pyrimidin-4-amine] | 9100
Cc1cc2c(NCCCc3ccccc3F)nc(C(F)(F)F)nc2s1 [Example 188, N-(3-(2-fluorophenyl)propyl)-6-methyl-2-(trifluoromethyl) thieno[2,3-d] pyrimidin-4-amine] | 5100
CCc1nc(NCCCc2ccccc2OC)c2cc(C)sc2n1 [Example 189, 2-ethyl-N-(3-(2-methoxyphenyl)propyl)-6-methylthieno[2,3-d]pyrimidin-4-amine] | 2800
CCc1nc(NCCCc2cccc(C(F)(F)F)c2)c2cc(C)sc2n1 [Example 190, 2-ethyl-6-methyl-N-(3-(3-(trifluoromethyl)phenyl)propyl) thieno[2,3-d] pyrimidin-4-amine] | 550

Structure (SMILES) | IC50 [nM]
CCc1nc(NCCCc2ccc(F)cc2)c2cc(C)sc2n1 [Example 191, 2-ethyl-N-(3-(4-fluorophenyl)propyl)-6-methylthieno[2,3-d]pyrimidin-4-amine] | 360
CCc1nc(NCCCN2CCCc3ccccc32)c2cc(C)sc2n1 [Example 192, N-(3-(3,4-dihydroquinolin-1(2H)-yl)propyl)-2-ethyl-6-methylthieno[2,3-d]pyrimidin-4-amine] | 930
CCc1nc(NCC#Cc2ccccc2)c2cc(C)sc2n1 [Example 193, 2-ethyl-6-methyl-N-(3-phenylprop-2-yn-1-yl)thieno[2,3-d]pyrimidin-4-amine] | 1800
CCc1nc(NCC(O)Cc2ccccc2)c2cc(C)sc2n1 (stereo not shown) [Example 194, 1-((2-ethyl-6-methylthieno[2,3-d]pyrimidin-4-yl)amino)-3-phenylpropan-2-ol] | > 10000
CCc1nc(NCCCN(C)c2ccccc2)c2cc(C)sc2n1 [Example 195, N1-(2-ethyl-6-methylthieno[2,3-d]pyrimidin-4-yl)-N3-methyl-N3-phenylpropane-1,3-diamine] | 680
CCc1nc(NCCCn2ccc3ccccc32)c2cc(C)sc2n1 [Example 196, N-(3-(1H-indol-1-yl)propyl)-2-ethyl-6-methylthieno[2,3-d]pyrimidin-4-amine] | 450
CCc1nc(NCCCn2cccn2)c2cc(C)sc2n1 [Example 197, N-(3-(1H-pyrazol-1-yl)propyl)-2-ethyl-6-methylthieno[2,3-d]pyrimidin-4-amine] | 8200
CCc1nc(NCCCc2cccc3ccccc23)c2cc(C)sc2n1 [Example 198, 2-ethyl-6-methyl-N-(3-(naphthalen-1-yl)propyl)thieno[2,3-d]pyrimidin-4-amine] | 170
CCc1nc(NCCCc2ccc(Br)cc2)c2cc(C)sc2n1 [Example 199, N-(3-(4-bromophenyl)propyl)-2-ethyl-6-methylthieno[2,3-d]pyrimidin-4-amine] | 120
CCc1nc(NCCCc2ccccc2F)c2cc(C)sc2n1 [Example 200, 2-ethyl-N-(3-(2-fluorophenyl)propyl)-6-methylthieno[2,3-d]pyrimidin-4-amine] | 650
CCc1nc(NCCCc2ccc(Oc3ccccc3)cc2)c2cc(C)sc2n1 [Example 201, 2-ethyl-6-methyl-N-(3-(4-phenoxyphenyl)propyl)thieno[2,3-d]pyrimidin-4-amine] | 610
CCc1nc(NCCCc2cccc(Br)c2)c2cc(C)sc2n1 [Example 202, N-(3-(3-bromophenyl)propyl)-2-ethyl-6-methylthieno[2,3-d]pyrimidin-4-amine] | 260
CCc1nc(NCCCc2ccc(C(C)(C)C)cc2)c2cc(C)sc2n1 [Example 203, N-(3-(4-(tert-butyl)phenyl)propyl)-2-ethyl-6-methylthieno[2,3-d]pyrimidin-4-amine] | 89
Cc1cc2c(NCCCc3ccc(Br)cc3)nc(C(F)(F)F)nc2s1 [Example 204, N-(3-(4-bromophenyl)propyl)-6-methyl-2-(trifluoromethyl) thieno[2,3-d] pyrimidin-4-amine] | 1900
Cc1cc2c(NCCCc3cccc4ccccc34)nc(C(F)(F)F)nc2s1 [Example 205, 6-methyl-N-(3-(naphthalen-1-yl)propyl)-2-(trifluoromethyl) thieno[2,3-d] pyrimidin-4-amine] | 1200
